# Test results reported in PubChem BioAssay AID608 (Sanford-Burnham Center for Chemical Genomics, 2007).
# Activity calls are given as the source filed them. The rule behind the calls is not given here.
# Target: Peptidyl-prolyl cis-trans isomerase FKBP1A (Homo sapiens) (UniProt P62942)
# Assay: FKBP12 binders, biophysical, NMR detection (AID 608)
# Conditions: NMR binding, purified FKBP12
# Peptidyl-prolyl cis-trans isomerase FKBP1A (Homo sapiens), sequence (P62942 whole entry, looked up): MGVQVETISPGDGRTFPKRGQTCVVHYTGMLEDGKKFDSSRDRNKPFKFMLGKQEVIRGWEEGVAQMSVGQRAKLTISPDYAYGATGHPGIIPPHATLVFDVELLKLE
row,Structure (SMILES),Kd
1,CC(C)(OC(=O)c1ccccc1)[C@@H]1Cc2cc3ccc(=O)oc3cc2O1,> 4 mM (inactive)
2,Oc1ccccc1N=Cc1cccnc1,> 4 mM (inactive)
3,O=C(Nc1ccc2c(c1)OCO2)c1cccs1,> 4 mM (inactive)
4,COc1cccc(-c2cc(=O)c3cc(OC)ccc3o2)c1,> 4 mM (inactive)
5,Nc1c(S(=O)(=O)c2ccccc2)csc1C(=O)O,> 4 mM (inactive)
6,Nc1cccc(C(=O)c2ccccc2)c1,> 4 mM (inactive)
7,CN1CCC(=NNC(=O)c2ccco2)CC1,> 4 mM (inactive)
8,CCC(=O)Nc1ccccc1NC(C)=O,> 4 mM (inactive)
9,COc1nc(N2CCOCC2)nc(N)c1[N+](=O)[O-],> 4 mM (inactive)
10,CC(=O)Oc1cc2c(C(C)=O)coc2c2ccccc12,> 4 mM (inactive)
11,O=C(c1ccccc1)c1ccc(N2CCNCC2)cc1,> 4 mM (inactive)
12,O=C(O)CCC(=O)Nc1nnc(C(F)(F)F)s1,> 4 mM (inactive)
13,COc1ccc(C)cc1S(=O)(=O)NC1CCCC1,> 4 mM (inactive)
14,COc1cc2c(cc1OC)C1=C(C#N)CCC(=O)N1CC2,> 4 mM (inactive)
15,COCc1cc(Cl)nc(-c2csc(C)n2)n1,> 4 mM (inactive)
16,O=S(=O)(NCc1ccco1)N1CCOCC1,> 4 mM (inactive)
17,COc1ccc(NC(=O)CSc2nccc(=O)[nH]2)cc1,> 4 mM (inactive)
18,O=C(O)C1CN2CCC1CC2 (centres undefined),> 4 mM (inactive)
19,CC(=O)CNc1cc(CNC(C)=O)c(C)cc1C,> 4 mM (inactive)
20,Cn1c(SCC(=O)NCCO)nc2ccccc2c1=O,> 4 mM (inactive)
21,Cn1ccc(NC(=S)NC2CCCC2)n1,> 4 mM (inactive)
22,Nc1ccccc1C(=O)N1CCOCC1,> 4 mM (inactive)
23,Cc1nc(N)sc1C(=O)N/N=C/c1ccncc1,> 4 mM (inactive)
24,O=C(O)C1=Cc2ccccc2OC1,> 4 mM (inactive)
25,C=CCc1cc(C(=O)N2CCCCC2)ccc1O,> 4 mM (inactive)

row,Structure (SMILES),Kd
1,O=S(=O)(c1ccc(F)c(Cl)c1)N1CCCC1,> 4 mM (inactive)
2,Cc1nn(C)c2sc(C(=O)O)cc12,> 4 mM (inactive)
3,O=S1(=O)NC(=NCc2ccco2)c2ccccc21,> 4 mM (inactive)
4,CN1CCC(NC(=S)NC2CC2)CC1,> 4 mM (inactive)
5,Cc1ccc(-n2nnnc2SCC(N)=O)c(C)c1,> 4 mM (inactive)
6,C=C(C)[C@H]1COc2cc3oc(=O)ccc3cc2O1,> 4 mM (inactive)
7,C/C(O)=c1/sc2cc(C)nc(=N)n2c1=O,> 4 mM (inactive)
8,CNC(=O)C1CCCN(S(C)(=O)=O)C1 (centres undefined),> 4 mM (inactive)
9,CC(=O)Nc1cccc(Cn2cccn2)c1,> 4 mM (inactive)
10,Nc1ccc(-n2cccn2)cc1,> 4 mM (inactive)
11,O=C1C[C@@H](c2ccccc2)Oc2cc(O)cc(O)c21,> 4 mM (inactive)
12,Cc1cc(C(=O)NCc2cccnc2)cs1,> 4 mM (inactive)
13,O=C(O)C1CN(Cc2ccccc2)CCO1 (centres undefined),> 4 mM (inactive)
14,O=C1NC(=O)C2C3C=CC(O3)C12 (centres undefined),> 4 mM (inactive)
15,NC(=O)C1CCN(CN2C(=O)c3ccccc3C2=O)CC1,> 4 mM (inactive)
16,CC(=O)Nc1ccc(NC(=O)C2CC2)cc1,> 4 mM (inactive)
17,COc1cc2[nH]c(=S)n(C)c(=O)c2cc1OC,> 4 mM (inactive)
18,O=C(Oc1ccc2c(c1)OCC2=O)c1ccccc1,> 4 mM (inactive)
19,COc1ccc(S(=O)(=O)Nc2ccccn2)c(C)c1C,> 4 mM (inactive)
20,O=c1c2ccccc2nc2n1CCS2,> 4 mM (inactive)
21,CCn1c2ccccc2c2nn(C)c(=N)nc21,> 4 mM (inactive)
22,Cc1ccccc1NC(=O)CSc1ccnc(=O)[nH]1,> 4 mM (inactive)
23,O=c1nc(N2CCOCC2)nc2n1CCO2,> 4 mM (inactive)
24,OC[C@H]1O[C@@H](O[C@H]2[C@H](O)[C@@H](O)[C@@H](O)O[C@@H]2CO)[C@H](O)[C@@H](O)[C@@H]1O,> 4 mM (inactive)
25,CN1CCC(NC(=O)c2cnccn2)CC1,> 4 mM (inactive)

row,Structure (SMILES),Kd
1,NS(=O)(=O)c1ccc(N=Cc2ccc[nH]2)cc1,> 4 mM (inactive)
2,Cc1cc2nc3c(=O)[nH]c(=O)nc-3n(CC(O)C(O)C(O)CO)c2cc1C (centres undefined),> 4 mM (inactive)
3,CC1CN(C(=O)c2sc3cccc(F)c3c2Cl)CC(C)O1 (centres undefined),> 13.6 mM (inactive)
4,NC(=O)CSc1ncnc2ccccc12,> 4 mM (inactive)
5,Nc1cccc(S(=O)(=O)N2CCOCC2)c1,> 4 mM (inactive)
6,CN1CCC(NC(=O)C2CCCO2)CC1 (centres undefined),> 4 mM (inactive)
7,NC(=O)c1ccc(N2CCCCC2)c(N)c1,> 4 mM (inactive)
8,NC12CC3CC(C1)CC(C(=O)O)(C3)C2,> 4 mM (inactive)
9,Cc1onc(-c2ccccc2)c1CO,> 4 mM (inactive)
10,OCCCc1nc2ccccc2[nH]1,> 4 mM (inactive)
11,C=CCCCCCCCCCCCC(O)CC(O)CO (centres undefined) (tested in a mixture with another compound),> 4 mM (inactive)
12,COc1ccc(C(=O)/C=C2\NC(=S)NC2=O)cc1,> 4 mM (inactive)
13,NC(=O)C1CCN(C(=O)Nc2ccccc2)CC1,> 4 mM (inactive)
14,CC(=O)c1cc(CN2C(=O)c3ccccc3C2=O)cs1,> 4 mM (inactive)
15,O=C(c1ccc(Cl)s1)N1CCOCC1,> 4 mM (inactive)
16,O=C(Cc1cccs1)Nc1ccon1,> 4 mM (inactive)
17,Cn1cnc2c(Cl)ncnc21,> 4 mM (inactive)
18,O=C(CSC1=NCCS1)N1CCc2ccccc21,> 4 mM (inactive)
19,Cc1nc2ccccc2c(=O)n1N1C(=O)CCCC1=O,> 4 mM (inactive)
20,c1ccc(SCc2nc(-c3ccccn3)no2)cc1,> 4 mM (inactive)
21,NC(=O)COc1ccccc1O,> 4 mM (inactive)
22,COC(=O)Cc1csc(N)n1,> 4 mM (inactive)
23,CC12CN([N+](=O)[O-])C3(C(N)=O)CC1CCC23C (centres undefined),> 4 mM (inactive)
24,COC1=CC(C)[C@@H]2C[C@H]3OC(=O)C[C@H]4C(C)=C(OC)C(=O)C([C@@]34C)[C@@]2(C)C1=O (some centres undefined),> 4 mM (inactive)
25,Cc1nc2c(n1O)CCc1c-2no[n+]1[O-],> 4 mM (inactive)

row,Structure (SMILES),Kd
1,COC(=O)CSc1ncnc2c(C)csc12,> 4 mM (inactive)
2,Cc1cc2c(N)cccc2nn1,> 4 mM (inactive)
3,COc1ccccc1NC(=O)c1ccc(Br)o1,> 4 mM (inactive)
4,N=c1n(N)c2ccccc2n1CCO,> 4 mM (inactive)
5,NC(=NCCC[C@H](N)C(=O)O)NC(CCC(=O)O)C(=O)O (some centres undefined),> 4 mM (inactive)
6,COc1ccc(-c2cc(=O)c3ccccc3o2)cc1,> 4 mM (inactive)
7,OCC(O)Cc1ccc2c(c1)OCO2 (centres undefined),> 4 mM (inactive)
8,CC1=C(C(N)=O)C(c2ccco2)C(C(N)=O)=C(C)N1,> 4 mM (inactive)
9,COc1ccc(/C=C/c2cc(O)cc(O)c2)cc1,> 4 mM (inactive)
10,CNC(=S)NCCN1CCOCC1,> 4 mM (inactive)
11,C=CC(C1=CC(=O)C=CC1=O)c1ccccc1 (centres undefined),> 4 mM (inactive)
12,COc1ccccc1C(=O)Nc1ccccn1,> 4 mM (inactive)
13,N#C/C(=C\c1ccc[nH]1)S(=O)(=O)c1ccccc1,> 4 mM (inactive)
14,CC(C)(C)c1cc(NC(=O)c2cccnc2)no1,> 4 mM (inactive)
15,Cc1cc(C(=O)NCc2cccnc2)no1,> 4 mM (inactive)
16,c1ccc(CCNc2ncnc3nc[nH]c23)cc1,> 4 mM (inactive)
17,COC(=O)NNc1ncnc(N)c1[N+](=O)[O-],> 4 mM (inactive)
18,CC1=CC(=O)NC2C=CC=CC12 (centres undefined),> 4 mM (inactive)
19,Cc1occc1C(=O)Nc1ccc(C(N)=O)cc1,> 4 mM (inactive)
20,NC(=O)C1(S(=O)(=O)c2ccccc2)CC1,> 4 mM (inactive)
21,Cc1cc(C)n2nc(Cc3ccccc3)nc2n1,> 4 mM (inactive)
22,C=C1C2CC[C@@]3(C)[C@H](c4ccoc4)OC(=O)C[C@]13O[C@H]1CC(O)C(C)(C)C(CC(=O)OC)[C@@]21C (some centres undefined),> 4 mM (inactive)
23,Cc1cc(C)n(CCC(=O)O)n1,> 4 mM (inactive)
24,N#CCc1nc2ccccc2s1,> 4 mM (inactive)
25,O=C(O[C@@H]1Cc2c(O)cc(O)cc2O[C@@H]1c1cc(O)c(O)c(O)c1)c1cc(O)c(O)c(O)c1,> 4 mM (inactive)

row,Structure (SMILES),Kd
1,c1cncc(Nc2nc(-c3cccnc3)cs2)c1,> 4 mM (inactive)
2,O=C(O)C1Cc2ccccc2N1 (centres undefined),> 4 mM (inactive)
3,CC(C)CCCC(C)[C@H]1CCC2C3CC=C4CC(=O)CC[C@]4(C)C3CC[C@@]21C (some centres undefined),> 4 mM (inactive)
4,CCOC(=O)c1[nH]c(C)cc1C,> 4 mM (inactive)
5,COc1c2ccoc2cc2oc(C)cc(=O)c12,> 4 mM (inactive)
6,Cn1ncc(C(=O)O)c1-c1ccccc1,> 4 mM (inactive)
7,COc1ccc(Cl)cc1-c1nc(-c2ccncc2)no1,> 4 mM (inactive)
8,O=C1CCNc2ccccc2N1,> 4 mM (inactive)
9,S=C(CN1CCCC1=S)N1CCOCC1,> 4 mM (inactive)
10,Nc1ccc(S(=O)(=O)Nc2nccs2)cc1,> 4 mM (inactive)
11,NC(=O)C1CCN(S(=O)(=O)c2ccccc2)CC1,> 4 mM (inactive)
12,Cc1ccc(NC(=O)/C=C2\SC(=O)NC2=O)cc1,> 4 mM (inactive)
13,CN1CCN(c2ncnc3nc[nH]c23)CC1,> 4 mM (inactive)
14,COc1ccc(C(C)=O)c(O)c1,> 4 mM (inactive)
15,CCCCn1c(=O)cc(O)c2ccccc21,> 4 mM (inactive)
16,c1ccc2c(c1)nc(-c1cscn1)n2CCCCc1nn[nH]n1,inactive
17,Fc1cccc(Cl)c1CN1CCCNCC1,> 4 mM (inactive)
18,NC(N)=Nc1nc2ccccc2o1,> 4 mM (inactive)
19,OCC1CCCN2CCCCC12 (centres undefined),> 4 mM (inactive)
20,Cc1ccc(-c2cc(C(=O)N3CCCC3)no2)cc1,> 4 mM (inactive)
21,O=C(O)C1NCCc2ccccc21 (centres undefined),> 4 mM (inactive)
22,O=C(Nc1ccc(OCC(=O)N2CCOCC2)cc1)c1ccccc1Cl,> 4 mM (inactive)
23,Cc1ccc(NS(=O)(=O)N2CCCCC2)c(C)c1,0.436 mM
24,Nc1nc(SCc2ccccc2)ns1,> 4 mM (inactive)
